# Test results from US7053234B2 (Amgen Inc., priority 2000, dated 2006).
# pIC50: −log10 of the molar value. Read-outs that look alike come from different tables or passages of the source.
# Assays:
# [1] = target: T1, Sigma^70 saturated E. coli RNA Polymerase (Escherichia coli, UniProt P0A8T7+P0A8V2); assay: RNA polymerase inhibition assay (E. coli enzyme); format: biochemical; details: for IC50: Table 2, read-out: RNA-pol IC50 (μM) E. coli; for pIC50: Table 1, enzyme not named, method uses E. coli RNA polymerase, read-out: IC50
# T1 construct: purchased Epicenter
# Description: The compounds of the present invention can be evaluated for antibacterial activity in a variety of assay formats known to those of skill in art. The specific assays used to select the most appropriate compound for use will typically depend on the targeted bacteria or infection. One common assay involves evaluation of the compounds as RNA polymerase inhibitors. In this assay, buffer (250 mM KCl, 5% Glycerol, 10 mM MgCl2, 0.1 mg/ml BSA) is combined with 6 mM B-M.E., PT5 DNA template, and 1.3 ug/rxn Sigma^70 saturated E. coli RNA Polymerase (Epicenter). The compound is then added in a manner not to exceed 5% DMSO. Nucleotide triphosphates are then added at the following concentration: 250 uM ATP, […] and UTP with 100 uM cold CTP and 50 uM alpha ^32P CTP. The mixture is incubated for 10 min at about 37° C. A [2×] loading buffer is added and the mixture is then run on a 6% urea denaturing PAGE until bromophenol blue reaches the edge of plate. The gel is soaked (about 20 minutes in 10% MeOH and 10% acetic acid, to remove urea), then dried (about 55 minutes at about 85° C. (BioRad Gel Drier)) and exposed to a Phospho Imaging Plate for 1 hour. The plate is then read on a Fujix Bas1000 Imaging System and quantified using MacBas v2.0 software. An IC50 (in uM) can be calculated as the concentration of a drug which reduces the enzyme activity to 50% of the control.
# RNA-pol S. aureus = RNA-pol S. aureus (Staphylococcus aureus, UniProt P47768+Q2G0N5); assay: RNA polymerase inhibition assay (S. aureus enzyme); format: biochemical; details: for IC50: Table 2, read-out: RNA-pol IC50 (μM) S. aureus
# S. aureus = assay: MIC determination, S. aureus; format: cell-based; details: Staphylococcus aureus
# Description: The compound is added and two-fold dilutions are made. The final volume in the 96-well plate is about 100 uL. The plate is incubated at 37° C. in the dark with shaking. After 16 hours of incubation, growth is monitored by reading A600 or by visual inspection. […] Methods for dilution antimicrobial susceptibility tests for bacteria that grow aerobically. Approved standard M7-A3; National Committee for Clinical Laboratory Standards: Villanova, Pa.
# E. coli (tolC) = assay: MIC determination, E. coli (tolC); format: cell-based; details: Escherichia coli
# Description: (§1) For MIC determinations for selected bacteria, log phase growing bacteria are re-suspended at 1×10^5 bacteria per mL in LB medium. The compound is added and two-fold dilutions are made. The final volume in the 96-well plate is about 100 uL. The plate is incubated at 37° C. in the dark with shaking. After 16 hours of incubation, growth is monitored by reading A600 or by visual inspection. MIC is defined as the minimum concentration of drug resulting in inhibition of visible growth of bacterial under the conditions described (above) in National Committee for Clinical Laboratory Standards 1993. Methods for dilution antimicrobial susceptibility tests for bacteria that grow aerobically. Approved standard M7-A3; National Committee for Clinical Laboratory Standards: Villanova, Pa.
# B. su = assay: MIC determination, B. su; format: cell-based; details: Table 1, 16 hours at 37° C. in LB medium, read-out: B. su (bacterial MIC)
# Description: as §1
# [2] = Table 2, read-out: MIC (μM) S. aureus
# [3] = read-out: MIC (μM) E. coli (tolC)
# [4] = Table 1, MIC, 16 hours at 37° C. in LB medium, read-out: S. au (bacterial MIC)
# [5] = 16 h, read-out: E. c(tolC) (bacterial MIC)
# T1 sequence (P0A8V2 whole entry): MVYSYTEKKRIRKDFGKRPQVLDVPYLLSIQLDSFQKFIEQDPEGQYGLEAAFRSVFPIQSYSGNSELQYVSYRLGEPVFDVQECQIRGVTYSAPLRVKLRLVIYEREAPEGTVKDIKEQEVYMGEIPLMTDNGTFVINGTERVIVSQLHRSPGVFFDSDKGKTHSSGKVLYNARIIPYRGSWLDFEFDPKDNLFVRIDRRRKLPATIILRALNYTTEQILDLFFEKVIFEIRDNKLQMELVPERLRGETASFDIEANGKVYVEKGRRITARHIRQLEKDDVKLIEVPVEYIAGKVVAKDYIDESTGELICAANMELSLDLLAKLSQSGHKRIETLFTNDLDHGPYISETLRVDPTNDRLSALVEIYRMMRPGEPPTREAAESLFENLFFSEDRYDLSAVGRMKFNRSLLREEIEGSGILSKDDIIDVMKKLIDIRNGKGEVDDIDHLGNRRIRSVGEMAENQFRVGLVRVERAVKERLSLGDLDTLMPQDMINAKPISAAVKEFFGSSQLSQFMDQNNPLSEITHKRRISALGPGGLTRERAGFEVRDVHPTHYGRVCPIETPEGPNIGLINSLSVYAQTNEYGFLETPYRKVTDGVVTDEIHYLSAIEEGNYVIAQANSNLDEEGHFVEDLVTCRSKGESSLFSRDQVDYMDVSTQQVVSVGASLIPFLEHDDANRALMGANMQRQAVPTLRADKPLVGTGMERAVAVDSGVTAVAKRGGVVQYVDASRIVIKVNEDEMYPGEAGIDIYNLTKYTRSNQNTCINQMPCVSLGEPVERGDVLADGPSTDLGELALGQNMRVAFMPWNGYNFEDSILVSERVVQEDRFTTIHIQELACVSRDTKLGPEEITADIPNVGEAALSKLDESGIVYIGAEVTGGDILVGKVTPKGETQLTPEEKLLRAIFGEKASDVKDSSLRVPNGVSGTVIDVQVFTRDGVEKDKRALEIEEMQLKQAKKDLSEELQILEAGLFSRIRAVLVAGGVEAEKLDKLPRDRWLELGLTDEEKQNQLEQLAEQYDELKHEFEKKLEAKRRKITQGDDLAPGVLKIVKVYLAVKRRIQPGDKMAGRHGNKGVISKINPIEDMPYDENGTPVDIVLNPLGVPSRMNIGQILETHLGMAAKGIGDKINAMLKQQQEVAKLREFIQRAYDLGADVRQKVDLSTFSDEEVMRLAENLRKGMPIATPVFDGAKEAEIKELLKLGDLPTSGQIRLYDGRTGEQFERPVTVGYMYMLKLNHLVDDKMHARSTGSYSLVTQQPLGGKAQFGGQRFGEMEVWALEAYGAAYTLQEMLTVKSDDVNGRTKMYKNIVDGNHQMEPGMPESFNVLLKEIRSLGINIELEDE
# T1 sequence (P0A8T7 whole entry): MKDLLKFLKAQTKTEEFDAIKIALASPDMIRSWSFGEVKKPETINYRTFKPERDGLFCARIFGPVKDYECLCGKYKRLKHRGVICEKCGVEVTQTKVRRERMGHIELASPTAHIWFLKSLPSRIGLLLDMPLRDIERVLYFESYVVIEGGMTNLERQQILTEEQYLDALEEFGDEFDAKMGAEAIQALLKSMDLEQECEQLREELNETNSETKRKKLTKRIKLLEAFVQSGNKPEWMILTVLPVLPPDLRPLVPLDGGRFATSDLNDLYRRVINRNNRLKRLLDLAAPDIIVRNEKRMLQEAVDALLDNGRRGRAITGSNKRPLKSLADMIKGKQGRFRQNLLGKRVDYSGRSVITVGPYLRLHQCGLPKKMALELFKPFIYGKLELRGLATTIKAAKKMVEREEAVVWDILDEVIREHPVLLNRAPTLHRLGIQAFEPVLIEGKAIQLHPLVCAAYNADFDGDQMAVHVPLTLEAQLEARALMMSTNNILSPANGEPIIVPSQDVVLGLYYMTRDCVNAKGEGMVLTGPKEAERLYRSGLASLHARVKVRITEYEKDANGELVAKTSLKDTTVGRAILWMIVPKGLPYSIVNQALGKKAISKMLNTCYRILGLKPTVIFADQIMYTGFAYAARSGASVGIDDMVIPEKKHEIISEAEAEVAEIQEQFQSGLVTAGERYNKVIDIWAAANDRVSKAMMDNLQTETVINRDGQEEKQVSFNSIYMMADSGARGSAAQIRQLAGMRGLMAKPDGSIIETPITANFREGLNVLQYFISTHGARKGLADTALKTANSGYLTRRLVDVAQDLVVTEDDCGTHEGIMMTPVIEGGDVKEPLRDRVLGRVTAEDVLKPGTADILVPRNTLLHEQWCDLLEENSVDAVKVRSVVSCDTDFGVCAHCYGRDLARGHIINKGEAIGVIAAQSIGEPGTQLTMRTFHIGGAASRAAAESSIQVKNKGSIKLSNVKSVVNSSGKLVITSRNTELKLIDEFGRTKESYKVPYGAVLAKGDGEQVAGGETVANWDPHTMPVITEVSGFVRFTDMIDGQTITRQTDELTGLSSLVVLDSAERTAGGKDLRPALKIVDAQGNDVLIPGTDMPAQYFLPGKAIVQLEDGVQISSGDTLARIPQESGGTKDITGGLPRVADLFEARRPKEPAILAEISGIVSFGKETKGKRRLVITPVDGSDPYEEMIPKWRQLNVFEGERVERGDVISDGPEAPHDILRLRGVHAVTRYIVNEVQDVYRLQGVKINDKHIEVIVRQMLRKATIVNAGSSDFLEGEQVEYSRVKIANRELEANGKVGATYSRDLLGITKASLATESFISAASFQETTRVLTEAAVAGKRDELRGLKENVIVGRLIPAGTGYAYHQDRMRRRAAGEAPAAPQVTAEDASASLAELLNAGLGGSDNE
# T1 sequence (P0A7Z4 whole entry partner): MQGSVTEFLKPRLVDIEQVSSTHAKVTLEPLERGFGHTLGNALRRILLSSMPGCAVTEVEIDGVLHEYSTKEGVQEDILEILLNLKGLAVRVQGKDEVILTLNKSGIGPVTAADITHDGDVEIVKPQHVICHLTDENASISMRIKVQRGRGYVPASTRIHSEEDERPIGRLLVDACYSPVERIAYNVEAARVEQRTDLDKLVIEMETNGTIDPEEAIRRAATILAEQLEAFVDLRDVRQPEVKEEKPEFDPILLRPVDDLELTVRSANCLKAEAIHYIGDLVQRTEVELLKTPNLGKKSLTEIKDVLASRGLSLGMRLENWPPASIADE
# T1 sequence (P0A800 whole entry partner): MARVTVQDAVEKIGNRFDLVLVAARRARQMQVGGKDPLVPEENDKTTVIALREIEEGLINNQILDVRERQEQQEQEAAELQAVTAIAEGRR
# T1 sequence (P00579 whole entry partner): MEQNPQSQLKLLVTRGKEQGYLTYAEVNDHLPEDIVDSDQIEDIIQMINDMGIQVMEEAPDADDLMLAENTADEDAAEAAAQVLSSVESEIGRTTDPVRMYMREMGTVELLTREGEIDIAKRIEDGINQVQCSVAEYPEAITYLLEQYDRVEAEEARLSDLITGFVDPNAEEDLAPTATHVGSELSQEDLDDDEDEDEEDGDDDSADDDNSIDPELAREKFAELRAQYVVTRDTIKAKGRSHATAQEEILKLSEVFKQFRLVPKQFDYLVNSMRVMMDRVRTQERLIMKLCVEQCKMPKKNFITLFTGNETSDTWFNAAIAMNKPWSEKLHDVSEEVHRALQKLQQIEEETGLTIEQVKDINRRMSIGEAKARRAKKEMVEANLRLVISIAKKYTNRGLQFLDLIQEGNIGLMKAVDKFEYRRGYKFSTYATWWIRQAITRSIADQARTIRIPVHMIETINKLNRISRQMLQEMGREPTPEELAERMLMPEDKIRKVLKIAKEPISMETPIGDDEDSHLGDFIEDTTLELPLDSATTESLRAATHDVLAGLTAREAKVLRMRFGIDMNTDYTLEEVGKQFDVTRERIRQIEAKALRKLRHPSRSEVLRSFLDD
SMILES,MIC (S. aureus; [2]),MIC (E. coli (tolC); [3]),IC50 (RNA-pol S. aureus),also measured
ON=C1CCN(c2ccc(C(=NO)Nc3cccc(Cl)c3)cc2C(F)(F)F)C1 [Compound 109],< 40 µM,< 40 µM,,IC50 [1]: 10 to 50 µM; pIC50 (RNA-pol S. aureus): < 4.30
CON=C1CCN(c2ccc(C(=NO)Nc3cccc(Cl)c3)cc2C(F)(F)F)C1 [Compound 110],40 to 125 µM,> 125 µM,,IC50 [1]: > 50 µM; pIC50 (RNA-pol S. aureus): < 4.30
OCCNc1ccc(C(=NO)Nc2cccc(Cl)c2)cc1C(F)(F)F [Compound 111],> 125 µM,< 40 µM,,IC50 [1]: 10 to 50 µM
ON=C(Nc1cccc(Cl)c1)c1ccc(NCCN2CCNCC2)c(C(F)(F)F)c1 [Compound 112],> 125 µM,< 40 µM,,IC50 [1]: 10 to 50 µM; pIC50 (RNA-pol S. aureus): < 4.30
ON=C(Nc1cccc(Cl)c1)c1ccc(NCCc2ccc(O)cc2)c(C(F)(F)F)c1 [Compound 113],< 40 µM,< 40 µM,,IC50 [1]: 10 to 50 µM
NS(=O)(=O)c1ccc(CCNc2ccc(C(=NO)Nc3cccc(Cl)c3)cc2C(F)(F)F)cc1 [Compound 114],< 40 µM,< 40 µM,,IC50 [1]: < 10 µM; pIC50 (RNA-pol S. aureus): < 4.30
[N-]=[N+]=Nc1cc(/C(=N/O)Nc2cccc(Cl)c2)cc(C(F)(F)F)c1F [Compound 115],< 40 µM,< 40 µM,> 50 µM,IC50 [1]: > 50 µM
Nc1cc(/C(=N/O)Nc2cccc(Cl)c2)cc(C(F)(F)F)c1F [Compound 116],< 40 µM,< 40 µM,> 50 µM,IC50 [1]: < 10 µM
Nc1cc(NC(=O)Nc2ccc(Cl)c(C(F)(F)F)c2)cc(C(F)(F)F)c1 [Compound 118],< 40 µM,< 40 µM,> 50 µM,
C=CCOC(=O)Nc1cc(NC(=O)Nc2ccc(Cl)c(C(F)(F)F)c2)cc(C(F)(F)F)c1 [Compound 119],< 40 µM,< 40 µM,,
O=C(CSc1ccccc1)Nc1cc(NC(=O)Nc2ccc(Cl)c(C(F)(F)F)c2)cc(C(F)(F)F)c1 [Compound 120],< 40 µM,< 40 µM,10 to 50 µM,IC50 [1]: > 50 µM
O=C(COc1ccc(Cl)cc1)Nc1cc(NC(=O)Nc2ccc(Cl)c(C(F)(F)F)c2)cc(C(F)(F)F)c1 [Compound 121],< 40 µM,> 125 µM,> 50 µM,
O=C(Nc1cc(NS(=O)(=O)c2ccc(C(F)(F)F)cc2)cc(C(F)(F)F)c1)Nc1ccc(Cl)c(C(F)(F)F)c1 [Compound 122],< 40 µM,> 125 µM,10 to 50 µM,
O=C(Nc1cc(N2CCCC2)cc(C(F)(F)F)c1)Nc1ccc(Cl)c(C(F)(F)F)c1 [Compound 123],< 40 µM,> 125 µM,< 10 µM,
COCC1CCCN1c1cc(NC(=O)Nc2ccc(Cl)c(C(F)(F)F)c2)cc(C(F)(F)F)c1 (stereo not drawn) [Compound 124],< 40 µM,> 125 µM,10 to 50 µM,
O=C(Nc1cc(N2CCOCC2)cc(C(F)(F)F)c1)Nc1ccc(Cl)c(C(F)(F)F)c1 [Compound 125],< 40 µM,< 40 µM,10 to 50 µM,
O=C(Nc1cc(N2CCOC2=O)cc(C(F)(F)F)c1)Nc1ccc(Cl)c(C(F)(F)F)c1 [Compound 126],> 125 µM,< 40 µM,< 10 µM,
O=C(Nc1cc(N2CCNC2=O)cc(C(F)(F)F)c1)Nc1ccc(Cl)c(C(F)(F)F)c1 [Compound 127],> 125 µM,> 125 µM,10 to 50 µM,

SMILES,MIC (S. aureus; [2]),MIC (E. coli (tolC); [3]),IC50 (RNA-pol S. aureus),also measured
COc1cc(NC(=O)CNc2ccc(Cl)c(C(F)(F)F)c2)cc(C(F)(F)F)c1 [Compound 128],< 40 µM,< 40 µM,> 50 µM,
COCC1CCCN1c1cc(NC(=O)CNc2ccc(Cl)c(C(F)(F)F)c2)cc(C(F)(F)F)c1 (stereo not drawn) [Compound 129],< 40 µM,> 125 µM,> 50 µM,
O=C(CNc1ccc(Cl)c(C(F)(F)F)c1)Nc1cc(NC(=O)COc2ccc(Cl)cc2)cc(C(F)(F)F)c1 [Compound 130],< 40 µM,> 125 µM,> 50 µM,
O=C(COc1ccc(Cl)cc1)Nc1cc(NCCNc2nc3cc(Cl)c(Cl)cc3[nH]2)cc(C(F)(F)F)c1 [Compound 131],< 40 µM,> 125 µM,< 10 µM,
"COCOc1cc(NC(=O)Nc2ccc(Cl)c(C(F)(F)F)c2)cc(C(F)(F)F)c1 [Compound 132, 1-(4-Chloro-3-trifluoromethyl-phenyl)-3-(3-methoxymethoxy-5-trifluoromethyl-phenyl)-urea]",< 40 µM,< 40 µM,10 to 50 µM,
"O=C(Nc1cc(O)cc(C(F)(F)F)c1)Nc1ccc(Cl)c(C(F)(F)F)c1 [Compound 133, 1-(4-Chloro-3-trifluoromethyl-phenyl)-3-(3-hydroxy-5-trifluoromethyl-phenyl)-urea]",< 40 µM,< 40 µM,10 to 50 µM,
C=CCOc1cc(NC(=O)Nc2ccc(Cl)c(C(F)(F)F)c2)cc(C(F)(F)F)c1 [Compound 134],,> 125 µM,< 10 µM,MIC (S. aureus; read-out: MIC (μM) S. aureus): < 40 µM
O=C(Nc1cc(OCc2cccc(Cl)c2)cc(C(F)(F)F)c1)Nc1ccc(Cl)c(C(F)(F)F)c1 [Compound 135],,> 125 µM,10 to 50 µM,
"O=C(CNc1ccc(N2CCCCC2)c(C(F)(F)F)c1)Nc1cc(COc2cccc(Cl)c2)cc(C(F)(F)F)c1 [Compound 136, N-[3-(3-Chloro-phenoxymethyl)-5-trifluoromethyl-phenyl]-2-(4-piperidin-1-yl-3-trifluoromethyl-phenylamino)-acetamide]",< 40 µM,> 125 µM,< 10 µM,
O=C(Nc1ccc(Cl)c(C(F)(F)F)c1)OCc1cc(-n2cccc2)cc(C(F)(F)F)c1 [Compound 137],< 40 µM,< 40 µM,10 to 50 µM,
"O=C(CSc1ccccc1)Nc1cc(COC(=O)Nc2ccc(Cl)c(C(F)(F)F)c2)cc(C(F)(F)F)c1 [Compound 139, (4-Chloro-3-trifluoromethyl-phenyl)-carbamic acid 3-(2-phenylsulfanyl-acetylamino)-5-trifluoromethyl benzyl ester]",< 40 µM,< 40 µM,10 to 50 µM,
"O=C(CNc1cccc(Cl)c1)Nc1cc(NC(=O)CNc2cccc(Cl)c2)cc(C(F)(F)F)c1 [Compound 140, 2-(3-Chloro-phenylamino)-N-{3-[2-(3-chloro-phenylamino)-acetylamino]-5-trifluoromethyl-phenyl}acetamide]",< 40 µM,> 125 µM,,
O=[N+]([O-])c1cc(C(=NO)Nc2ccccc2)ccc1Cl [Example 15],,,,pIC50 [1]: 4.30 to 5.00; MIC (B. su): > 125 µM; MIC (S. aureus; [4]): > 125 µM; MIC (E. coli (tolC); [5]): > 125 µM
ON=C(Nc1ccccc1)c1ccc(F)c(C(F)(F)F)c1 [Example 16],,,,pIC50 [1]: 4.30 to 5.00; MIC (B. su): 40 to 125 µM; MIC (S. aureus; [4]): > 125 µM; MIC (E. coli (tolC); [5]): < 40 µM
ON=C(Nc1cccc(Cl)c1)c1ccc(Cl)c(C(F)(F)F)c1 [Example 64],,,,pIC50 [1]: > 5.00; MIC (B. su): < 40 µM; MIC (S. aureus; [4]): < 40 µM; MIC (E. coli (tolC); [5]): < 40 µM
ON=C(Nc1ccccc1)c1ccc(Cl)c(C(F)(F)F)c1 [Example 65],,,,pIC50 [1]: > 5.00; MIC (B. su): 40 to 125 µM; MIC (S. aureus; [4]): < 40 µM; MIC (E. coli (tolC); [5]): < 40 µM
"ON=C(Nc1ccccc1)c1cc(C(F)(F)F)cc(C(F)(F)F)c1 [R′=3-CF3, R″=5-CF3, R′″=H]",,,,pIC50 [1]: < 4.30; MIC (B. su): 40 to 125 µM; MIC (S. aureus; [4]): 40 to 125 µM; MIC (E. coli (tolC); [5]): < 40 µM
